Laboratory results from US4925649A, “Radioiodinated diacylglycerol analogues and methods of use” (The University of Michigan, priority 1987, dated 1990).

Tested on: intracellular PK-C
Assay: [3H]PDBu binding to intact HL-60 cells
Type: cell-based, human
Conditions: 37° C., 30 minutes, FIG. 9, compared with naturally occurring diacylglycerol DiC8
Description: The diacylglycerol composition under investigation was stored in chloroform at -20° C. Prior to use, the diacylglycerol was dried under nitrogen and sonicated in RPMI-1640 growth media. HL-60 cells, derived from a human leukemia cell line, were cultured in RPMI-1640 growth media containing 10% horse serum. The cells were placed in fresh serum-containing growth media 24 hours prior to the experiment. Then, cells in log phase growth were placed in normal serum containing growth media with 20 mM HEPES buffer (pH 7.4) at a concentration of 5×10^6 cells/ml. The cells were incubated at 37° C. in 5% CO2 /air in the presence of [^3 H]PDBu and various concentrations of diacylglycerol.
Binding reactions were stopped after 30 minutes by filtering the cells over Whatman glass fiber GF/C filters and rinsing with cold phosphate buffered saline (pH 7.4). The filters were then dried and counted with a scintillation counter. Nonspecific binding was determined by adding 2 μM non-tritiated phorbol diester to parallel binding reactions. Specific [^3 H]PDBu binding was calculated by subtracting nonspecific [^3 H]PDBu from the total. All binding data are expressed in terms of specific binding. Specific binding typically represented 80% of the total.

For CCCCCCCC(=O)OCC(CO)OC(=O)CCc1cccc(I)c1 (racemic) [OIPG, 1-octanoyl-2-[3-(m-iodophenyl)propanoyl]-rac-glycerol], the “diacylglycerol inhibition of [3H]PDBu binding in intact HL-60 cells” value was “capable of entering intact cells and binding to intracellular PK-C in a manner similar to a naturally occurring diacylglycerol”.
